Counter-ions that a name gives are not always drawn.

The target in experiment [1] is Herpes simplex virus 1 protease (Human herpesvirus 1, UniProt P10210). As to conditions: 1M Na citrate; cited from earlier work.
In experiment [2] the target is T1, Caspase 9 (Homo sapiens, UniProt P55211).
T1 construct: purchased
T1 sequence (P55211 1-315 limits assumed): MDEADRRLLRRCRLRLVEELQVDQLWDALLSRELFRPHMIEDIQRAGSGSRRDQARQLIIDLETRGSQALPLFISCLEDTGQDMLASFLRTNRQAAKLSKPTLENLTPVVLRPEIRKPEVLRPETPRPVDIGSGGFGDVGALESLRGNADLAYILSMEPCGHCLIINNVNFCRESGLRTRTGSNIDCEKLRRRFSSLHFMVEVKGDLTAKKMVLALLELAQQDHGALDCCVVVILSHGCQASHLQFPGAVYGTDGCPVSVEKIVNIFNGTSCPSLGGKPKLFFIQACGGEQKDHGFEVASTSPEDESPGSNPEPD
T1 sequence (P55211 331-416 limits assumed): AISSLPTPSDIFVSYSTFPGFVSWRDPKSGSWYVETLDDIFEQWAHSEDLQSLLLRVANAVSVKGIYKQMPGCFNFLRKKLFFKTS
Briefly: Caspase 9 cleavage of Ac-LEHD-AFC in buffers containing Hofmeister salts. In kind it is biochemical.

The target of experiment [3] is T2, Caspase 7 (Homo sapiens, UniProt P55210).
T2 sequence (P55210 24-198 limits assumed): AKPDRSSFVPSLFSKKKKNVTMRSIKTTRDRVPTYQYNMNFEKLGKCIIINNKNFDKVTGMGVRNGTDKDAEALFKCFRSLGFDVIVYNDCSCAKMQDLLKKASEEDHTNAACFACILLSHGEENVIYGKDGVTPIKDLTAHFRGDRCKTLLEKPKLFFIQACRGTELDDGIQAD
T2 sequence (P55210 207-303 limits assumed): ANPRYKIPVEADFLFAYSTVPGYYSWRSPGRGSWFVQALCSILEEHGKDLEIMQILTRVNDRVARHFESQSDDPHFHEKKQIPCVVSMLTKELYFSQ
As to the kind of experiment: Caspase 7 activity in ammonium sulfate at various concentrations.
Protocol: (§1) The control buffer used to carry out specificity reactions is as follows: 20 mM PIPES pH 7.2, 1 mM EDTA, 0.1% CHAPS, 10% sucrose, 10 mM DTT. Various N-acetyl-tetrapeptide-7-amino-trifluoromethylcoumarin substrates at 100 uM were assayed with the different commercially available caspases. 2.5 mM stock substrate concentrations were prepared in DMSO and subsequently diluted to 200 uM with control buffer.
(§2) 300 U stock solutions of the enzymes in interest were prepared in the control buffer listed above. The assay was carried out as follows: 96 well black Dynex microfluorometer 1 plate was used. Total Assay volume was 100 ul. 7-amino-trifluoromethyl coumarin (AFC) was excited at 400 nm, and fluorescence emission was monitored at 505 nm kinetically for the duration of 1 hour (h) wherein AFC was cleaved from the peptide.
(§3) 50 ul of 200 uM stock substrate was added first (final assay concentration 100 uM). 40 ul of the control buffer was then added. The assay was initiated with the addition of 10 ul of the appropriate 300 U caspase stock (30 U in final assay). A linear rate (relative fluorescence U/s) was calculated from the entire duration of the experiment and graphed for each enzyme verses the various substrates tested.
(§4) The substrates in ammonium sulfate using Caspase 9 was 25 uM Ac-LEHD-Afc (SEQ ID NO: 5) and for Caspase 3 was 25 uM Ac-DEVD-Afc (SEQ ID NO: 1).

The target of experiment [4] is T3, Caspase 3 (Homo sapiens, UniProt P42574).
T3 sequence (P42574 29-175 limits assumed): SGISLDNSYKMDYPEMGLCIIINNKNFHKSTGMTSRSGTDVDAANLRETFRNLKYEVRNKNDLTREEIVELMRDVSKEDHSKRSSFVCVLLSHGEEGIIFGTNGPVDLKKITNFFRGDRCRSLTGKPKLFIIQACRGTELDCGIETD
T3 sequence (P42574 176-277 limits assumed): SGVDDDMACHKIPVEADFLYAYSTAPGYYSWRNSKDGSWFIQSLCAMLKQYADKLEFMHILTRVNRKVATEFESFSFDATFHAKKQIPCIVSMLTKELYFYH
As to the kind of experiment: Caspase 3 cleavage of Ac-DEVD-Afc in ammonium sulfate at various concentrations. As to conditions: 25 uM Ac-DEVD-Afc.
Protocol: as §1, §2, §3, §4

Experiment [5] has as its target T4, Caspase 1 (Homo sapiens, UniProt P29466).
T4 sequence (P29466 120-297 limits assumed): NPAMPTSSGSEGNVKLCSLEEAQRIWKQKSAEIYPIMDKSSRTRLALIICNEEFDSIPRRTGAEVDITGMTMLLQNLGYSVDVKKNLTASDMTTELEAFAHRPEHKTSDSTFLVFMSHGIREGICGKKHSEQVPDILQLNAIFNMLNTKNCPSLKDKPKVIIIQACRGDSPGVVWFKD
T4 sequence (P29466 317-404 limits assumed): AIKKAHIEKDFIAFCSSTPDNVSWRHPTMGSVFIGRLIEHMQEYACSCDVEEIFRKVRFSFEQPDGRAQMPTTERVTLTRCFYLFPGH
Briefly: Caspase 1 activity in ammonium sulfate at various concentrations.
Protocol: as §1, §2, §3, §4

Sequence of Herpes simplex virus 1 protease (P10210 1-247): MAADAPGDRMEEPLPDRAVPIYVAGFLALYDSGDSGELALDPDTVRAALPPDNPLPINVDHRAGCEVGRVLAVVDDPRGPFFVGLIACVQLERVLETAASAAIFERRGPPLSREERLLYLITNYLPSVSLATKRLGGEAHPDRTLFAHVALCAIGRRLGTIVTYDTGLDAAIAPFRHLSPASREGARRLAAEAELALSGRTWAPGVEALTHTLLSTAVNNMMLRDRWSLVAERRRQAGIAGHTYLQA

Turning to `O=C(O)CC(O)(CC(=O)O)C(=O)O` [citrate, Na citrate], the “increase in activity of Herpes simplex virus 1 protease” value in experiment [1] is reported as 860 fold. Besides, the “activity of Caspase 9 relative to activity in 0.8 M bromide” value in experiment [2] (0.8 M salt in control buffer pH 7.2, 100 uM N-Ac-LEHD-Afc, 30 U Caspase 9/well (0.72 uM)) is recorded as 10,000 fold.

`N.N.O=S(=O)(O)O` [ammonium sulfate]: the “effect of salt on Caspase 7 activity” value in experiment [3] is “no effect”. For the same compound, the “effect of salt on Caspase 3 activity” value in experiment [4] is “minimal effect”. The “effect of salt on Caspase 1 activity” value in experiment [5] was “no effect”. Besides, the “Caspase 9 activity increase” value in experiment [2] (sulfate concentrations from 0 to 1.6 M, 25 uM Ac-LEHD-Afc) is given as 1400 fold.

Consider `O=P(O)(O)O` [sodium phosphate], for which, in experiment [2] (phosphate concentrations from 0 to 1 M, 100 uM Ac-LEHD-Afc), the “Caspase 9 activity increase” value came out at 2200 fold.

(Values after patent publication US7452683B2, “Caspase 9 activation and uses therefor” (Wyeth, priority 2002, dated 2008).)
